From patent US20250215091A1, “Anti-GAL3 Antibodies and Compositions” (Les Laboratoires Servier, priority 2022, published 2025)

What was measured:
plasma Gal3 = test: HOCI-induced murine fibrosis model: plasma Gal3 (ELISA); format: in vivo, mice; details: first experiment, day 42; FIG. 10
Method: (§1) In a first experiment, control mice (n=12) received a daily intradermal injection of 300 μL of sterile phosphate buffer saline (PBS) for 5 consecutive days per week, for a duration of 42 days. HOCI alone and HOCI with antibody (HOCI-antibody) treated mice (n=12 per group) received a daily intradermal injection of 300 μL of HOCI for 5 consecutive days per week, for a duration of 42 days. Antibody-treated mice also received a subcutaneous injection of 20 mg/kg antibody, starting at day minus one and every 5 days between day 5 and day 40. Each antibody was solubilized in sterile, endotoxin-free PBS before injection. In a second experiment, the same protocol was applied, except that duration of the study was 63 days and antibodies were given every 7 days starting at day minus 1 until day 62.
(§2) Mice that received daily injection of HOCI were also treated by intratracheal instillation of 0.5 mg/kg of TD139 compound (HOCI-TD139), a small molecule Gal3 inhibitor. In a first experiment, the administrations started from day 21 and the compound was given every 3 days until day 39. In a second experiment, the administrations started from day 20 and the compound was given every 3 days until day 62. TD139 was initially dissolved in 100% DMSO then diluted 50-fold in endotoxin-free PBS before administration.
In the first experiment, the plasma levels of Gal3 were measured at day minus 1 (before antibody administration) and at termination day (day 42) using a mouse Galectin-3 DuoSet ELISA kit (R&D Systems, DY1197) according to the manufacturer's instructions. Plasma samples were diluted 1:200 in order to fit with the dynamic range of the assay.

[1] = tested on: murine model of HOCI-induced fibrosis; test: HOCI-induced murine fibrosis model: skin and lung collagen (Picrosirius red); format: in vivo, mice; details: first experiment; for lung collagen levels: day 42, FIG. 8A; for skin collagen levels: day 42, vs HOCI group, FIG. 8B
Method: as §1, §2
At the day of study termination of the first experiment (day 42), skin and lung samples were taken, formalin-fixed and processed to individual paraffin wax blocks. Sections of skin and lung were cut from the blocks and, after rehydration, stained with Picrosirius Red coloration according to the manufacturer's protocol. Subsequently, each slide was examined and remotely analyzed employing the web-based Image J software

plasma IL-6 = test: HOCI-induced murine fibrosis model: plasma IL-6 (MSD); format: in vivo, mice; details: first experiment, day 42; vs HOCI group; FIG. 9
Method: as §1, §2
(§3) In the first experiment, a mixed effect model with repeated measurements was performed on Control group, HOCI treated group, HOCI-antibody- and HOCI-TD139-treated groups. The impact of HOCI administration on plasma IL-6 and IL-5 levels was evaluated compared to the control group. The impact of antibody and TD139 treatments was compared to the HOCI group (FIG. 9). IL-6 and IL-5 were quantified by using the MSD technology from Mesoscale.

[2] = tested on: genes differentially regulated between HOCI group and control group in whole blood cells; test: HOCI-induced murine fibrosis model: whole blood RNA sequencing; format: in vivo, mice; details: of 510 genes differentially regulated HOCI vs control; day 42, whole blood
Method: as §1, §2
In the first experiment, global gene expression was examined at day 42 in whole blood cells by RNA sequencing.
Whole blood was collected in RNA protect tubes (Qiagen) and were processed for RNA extraction using the RNeasy Protect Animal blood kit with the optional on-column DNAse I digestion. Total RNA samples were quantified on Nanodrop 2000 (ThermoFisher Scientific™) and analyzed on Bioanalyzer (Agilent) using RNA 6000 Nano chips to determine RNA quality (RIN). Total RNA matching the QC criteria were included in the study. Purified RNA samples were used as input for the TruSeq Strand-specific RNA-seq (poly A selection and globin depletion) according to manufacturer's protocol (Illumina). […]
Raw reads were processed using the in-house RNAExp Expression pipeline 2.1 and the quality was assessed using FastQC tools. Then, reads were trimmed for adaptors using Cutadapt and trimmed reads were aligned to mouse mm39 reference genome using the STAR aligner. Aligned data were evaluated for quality using Samtools and Picard tools. Then, aligned reads per gene were quantified using FeatureCount. […] Read count were normalized by the variance stabilizing transformation vst function from DESeq2 R package.
55,416 genes were detected in the data. […] Genes differentially expressed between groups were determined using a linear model (ImFit function from limma R package) on vst transformation gene expression dataset. […]

[3] = tested on: murine model of bleomycin-induced fibrosis; test: Bleomycin-induced murine lung fibrosis model: Modified Ashcroft fibrosis score; format: in vivo, mice; details: for attenuation of lung fibrosis (overall): day 21, FIG. 15
Method: (§4) Control bleomycin mice named ‘Bleo’ received an administration of 1.65 mg/kg bleomycin by the oropharyngeal route on Day 1. […] Antibody-treated mice also received an administration of 1.65 mg/kg bleomycin by the oropharyngeal route on Day 1 and a subcutaneous injection of 20 mg/kg antibody, starting on day minus one and on days 4, 8, 12, 16 and 20. Each antibody was solubilized in sterile, endotoxin-free PBS before injection. Mice that received bleomycin were also treated by oropharyngeal administration of 0.5 mg/kg of TD139 compound (Bleo-TD139), a small molecule Gal3 inhibitor, starting on day 12 and every 2 days until day 20. TD139 was initially dissolved in 100% DMSO.
Mice were submitted for terminal euthanasia on day 21. The lungs were collected for histopathological examination and gravity inflation-fixed with 10% neutral buffered formalin (NBF) before being immersion fixed in NBF.
Sections were taken and then placed on three slides as indicated by the code numbers on FIG. 14.
Three longitudinal sections parallel to and bisecting the main stem bronchus were trimmed from the left lung and right caudal lung lobes and mounted in cassettes 01 and 02, respectively. The right cranial, middle and accessory lung lobes were sectioned longitudinally and mounted in cassette 03. All sections were stained with picrosirius red and scored in a blinded manner by a certified veterinary pathologist using the Modified Ashcroft fibrosis score (0-8), where “0” corresponds to “normality (no fibrosis) and “8” corresponds to the highest possible fibrosis score, as described by Hübner et al. (2008) but based on assessment across the whole section of lung.

[4] = tested on: murine model of bleomycin-induced fibrosis; test: Bleomycin-induced murine lung fibrosis model: body weight and body weight metrics; format: in vivo, mice; details: for reduction of median Time to baseline (TTB): median TTB 20 days for untreated bleomycin group; for reduction of median Time to baseline (TTB) / reduction of median Time to weight growth (TWG): FIG. 13; for reduction of median Time to weight growth (TWG): median TWG 10 days for untreated bleomycin group
Method: as §4
Mice were weighed daily. Their growth curves are represented on FIG. 12. Control mice had normal growth with a mean percent increase of 6.4% of their initial body weight measured on day minus 1.
Body weight metrics were assessed by using two parameters called Time to weight growth (TWG) and Time to baseline (TTB), shown on FIG. 13. Time to weight growth corresponds to the point of inflection when mice show an ascending growth curve and start to regain weight within the course of the experiment. Time to baseline corresponds to the number of days required for mice to recover their initial body weight (day minus 1). The median TWG was 10 days for the untreated bleomycin group. […] TD139 compound had no efficacy on this parameter (p-value 0.53).

[5] = tested on: murine model of HOCI-induced fibrosis; test: HOCI-induced murine fibrosis model: skin thickness; format: in vivo, mice; details: first experiment, 42 days; antibody 20 mg/kg s.c.; TD139 0.5 mg/kg intratracheal; vs HOCI group; FIG. 7A
Method: as §1, §2
The evolution of skin thickness was monitored by using an external caliper, every seven days until sacrifice.

plasma IL-5 = test: HOCI-induced murine fibrosis model: plasma IL-5 (MSD); format: in vivo, mice; details: first experiment, day 42; vs HOCI group; FIG. 9
Method: as §1, §2, §3

rat model of ARDS [6] = test: Rat ARDS model (LPS challenge): total BALF protein (BCA assay); format: in vivo; details: antibodies 14 mg/kg x3 prior to LPS; dexamethasone 10 mg/kg oral; vs LPS group; FIG. 17
Method: (§5) Positive control rats received 3 doses of sterile phosphate buffer at day minus 11, minus 6 and minus 1 prior LPS challenge (0.25 mg/kg by subcutaneous route at day 1). Negative control rats received one oral dose of Dexamethasone at 10 mg/kg (dissolved in 0.5% carboxymethyl cellulose in deionized water) 2 hours prior LPS challenge (0.25 mg/kg by subcutaneous route at day 1). LPS (lipopolysaccharide) causes an acute inflammatory response, whereas dexamethasone has anti-inflammatory effects thus being the reference treatment in this model.
(§6) Antibody-treated rats received 3 doses of antibodies (14 mg/kg) at day minus 11, minus 6 and minus 1 prior to LPS challenge (0.25 mg/kg by subcutaneous route at day 1). Each antibody was solubilized in sterile PBS before injection.
(§7) Control rats of the experiment received 3 doses of sterile phosphate buffer at day minus 11, minus 6 and minus 1 without LPS challenge at day 1.
The impact of anti-Gal3 antibody treatment in LPS challenged rats were evaluated by quantification of proteins (by BCA assay) in BALF and compared to the positive control group (LPS challenge with PBS treatment) (FIG. 17). The presence of protein in BALF reflects the damage to the air-blood barrier. […] Total BALF protein numeration levels were decreased after treatment with anti-inflammatory dexamethasone.

plasma TNF alpha = test: Rat ARDS model (LPS challenge): plasma TNF alpha (MSD); format: in vivo; details: 4 h following LPS challenge; vs LPS group; FIG. 18
Method: as §5, §6, §7
For all rats, plasma sampling was performed 4 h following LPS challenge.
The impact of anti-Gal3 antibody treatment in LPS challenged rats were evaluated on plasma cytokine levels, namely TNF alpha and KC-GRO cytokines, and compared to the positive control group (LPS challenge with PBS treatment) (respectively FIG. 18A and FIG. 18B). TNF alpha and KC-GRO were quantified by using the MSD technology from Mesoscale.

rat model of ARDS [7] = test: Rat ARDS model (LPS challenge): neutrophils counts in BALF; format: in vivo; details: antibodies 14 mg/kg x3 prior to LPS; dexamethasone 10 mg/kg oral; vs LPS group; FIG. 16
Method: as §5, §6, §7
The impact of anti-Gal3 antibody treatment in LPS challenged rats were evaluated by quantification of neutrophils in Bronchoalveolar Lavage Fluid and compared to the positive control group (LPS challenge with PBS treatment) (FIG. 16). […] Neutrophils numeration levels were decreased after treatment with anti-inflammatory dexamethasone.

With `OC[C@H]1O[C@@H](S[C@@H]2O[C@H](CO)[C@H](O)[C@H](n3cc(-c4cccc(F)c4)nn3)[C@H]2O)[C@H](O)[C@@H](n2cc(-c3cccc(F)c3)nn2)[C@H]1O` [TD139, reference compound] the “plasma Gal3 levels” value (plasma Gal3) was “restored the plasma Gal3 levels to values similar to those of the control group”, the lung collagen levels [1] was “restored lung collagen levels to those of control mice” and the skin collagen levels [1] was “significantly reduced”. For the same molecule, the “plasma IL-6 levels” value (plasma IL-6) was “no activity”, the “number of HOCI-dysregulated genes counteracted by treatment” value [2] was 7 genes and the “percentage of HOCI-dysregulated genes counteracted by treatment” value [2] was 1.37%. The “mice having a lung fibrosis score of 2 and 3” value ([3]; day 21) was 50.6%, the “mice having a lung fibrosis score of 4 and 5” value ([3]; day 21, 49.3% for untreated bleomycin group) was 49.4% and the “attenuation of lung fibrosis (overall)” value [3] was “did not show any sign of anti-fibrotic efficacy”. For the same molecule, the “reduction of median Time to baseline (TTB)” value [4] was “no efficacy”, the “reduction of median Time to weight growth (TWG)” value [4] was “no efficacy” and the “mean percent weight increase on day 21 compared to day minus 1” value ([4]; untreated bleomycin group +1.9%, control mice 6.4%) was 2.9%. For the same molecule, the “HOCI-induced increase in skin thickness” value [5] was “lower decrease in skin thickness than with either antibody, reaching statistical significance only at days 28 and 42” and the “plasma IL-5 levels” value (plasma IL-5) was “decreased significantly”.

B1: D06: anti-Gal3 monoclonal antibody, IgG1 format; VH SEQ ID NO 38, VL SEQ ID NO 39 (antibody, V domains shown)
VH: EVQLVESGGSLVKPGGSLRLSCAASGFTFSNYNMNWVRQAPGKGLEWISSIYGSSRYIYYADFVKGRFTISRDNAKNSLYLQMNSLRAEDTAVYYCVRSGYGGMDVWGRGTLVTVSS
VL: QSVLTQPASVSGSPGQSITISCAGTSSDVGGYNGVSWYQQHPGKAPKLMIYYDSYRPSGVSNRFSGSKSGNTASLTISGLQAEDEADYYCSSGTDYSTRVFGGGTKLEIK
modifications: IgG1 constant region
With B1 the lung collagen levels [1] was “restored lung collagen levels to those of control mice”, the skin collagen levels [1] was “non significant downward trend” and the “frequency of animals with fibrosis score of 2” value ([3]; day 21, 7.4% in untreated bleomycin group) was 30%. The “frequency of animals with median fibrosis scores of 3 or 4” value ([3]; day 21, 87.6% in untreated bleomycin group) was 64.5%, the “attenuation of lung fibrosis (overall)” value [3] was “clear evidence for attenuation of lung fibrosis” and the “body weight status on day 21” value ([4]; bleomycin 1.65 mg/kg, antibody 20 mg/kg s.c.) was “full weight recovery”. The “recovery of body weight” value ([4]; bleomycin 1.65 mg/kg, antibody 20 mg/kg s.c., FIG. 12) was “more rapid recovery of body weight”, the “reduction of median Time to baseline (TTB)” value [4] was 5.5 days and the “reduction of median Time to weight growth (TWG)” value [4] was 2.8 days. For the same molecule, the “total BALF protein” value (rat model of ARDS [6]) was “also decreased”, the “TNF alpha plasma levels” value (plasma TNF alpha) was “also decreased, displaying an intermediary profile” and the “neutrophils counts in BALF” value (rat model of ARDS [7]) was “also decreased”.
